Assay: Inhibition of H(+)/K(+) ATPase

| Compound | pIC50 |
| --- | --- |
| Cc1cccc(C)c1-c1cc(-c2nc(C)c(C)[nH]2)co1 | < 4 |
| Cc1nc(-c2cccc(-c3ccccc3)c2)[nH]c1C | 4.7 |
| CNCc1cccc(-c2c(C)cccc2C)c1 | 4.3 |
| CCc1cccc(CC)c1-c1cccc(-c2nc(C)c(C)[nH]2)c1 | 5.1 |
| Cc1cccc(C)c1-c1cccc(-c2ncc[nH]2)c1 | 4.5 |
| Cc1ccc(-c2nc(C)c(C)[nH]2)cc1-c1c(C)cccc1C | 4.9 |
| Cc1cccc(C)c1-c1cccc(-c2nc(C)c(C)n2C)c1 | 4.6 |
| CCCn1ccnc1-c1cccc(-c2c(C)cccc2C)c1 | 4.3 |
| Cc1nc(-c2ccccc2-c2ccccc2)[nH]c1C | 4.2 |
| COc1cc(-c2c(C)cccc2C)cc(-c2nc(C)c(C)[nH]2)c1OC | 4.6 |
| Cc1cccc(C)c1-c1cccc(-c2nc3ccccc3[nH]2)c1 | 4.4 |
| COc1c(-c2c(C)cccc2C)cc2c(c1-c1nc(C)c(C)[nH]1)OCC2 | 5.5 |
| Cc1cccc(C)c1-c1cccc(-c2cncn2C)c1 | 4.4 |
| Cc1cccc(C)c1-c1ccc(-c2nc(C)c(C)[nH]2)s1 | 4.1 |
| COc1c(-c2nc(C)c(C)[nH]2)cccc1-c1c(C)cccc1C | < 4 |
| Cc1cccc(C)c1-c1cc(-c2nc(C)c(C)[nH]2)cs1 | 4.5 |
| Cc1nc(-c2cccc(CCc3ccccc3)c2)[nH]c1C | 4.3 |
| Cc1cccc(C)c1-c1cccc(N2CCN(C)CC2)c1 | 4.4 |
| CCOc1ccc(-c2c(C)cccc2C)cc1-c1nc(C)c(C)[nH]1 | 5.6 |
| Cc1cccc(C)c1-c1ccc(OC(F)F)c(-c2nc(C)c(C)[nH]2)c1 | 5 |
| Cc1cccc(C)c1-c1cccc(-c2cc(N)ccn2)c1 | 4.5 |
| Cc1cccc(C)c1-c1ccc(OCc2ccccc2)c(-c2nc(C)c(C)[nH]2)c1 | 5.3 |
| CCc1nc(-c2cccc(-c3c(C)cccc3C)c2)[nH]c1CC | 4.8 |
| Cc1cccc(C)c1-c1ccc(-c2nc(C)c(C)[nH]2)o1 | 4.9 |
| Cc1cccc(C)c1-c1cc(-c2nc(C)c(C)[nH]2)ccc1-c1ccncc1 | < 4 |
| Cc1nc(-c2cccc(/C=C/c3ccccc3)c2)[nH]c1C | 4.4 |

The remaining lines, values ahead:

| pIC50 | Compound |
| --- | --- |
| 4.3 | Cc1cccc(C)c1CNc1cccc(-c2nc(C)c(C)[nH]2)c1 |
| 5.7 | Cc1cccc(C)c1-c1ccc(O)c(-c2nc(C)c(C)[nH]2)c1 |
| 5.2 | Cc1cccc(C)c1-c1cccc(-c2nc(C)c(C)[nH]2)c1 |
| 4.9 | Cc1cccc(C)c1Nc1cccc(-c2nc(C)c(C)[nH]2)c1 |
| 4.4 | Cc1cccc(C)c1-c1ccc(-c2nc(C)c(C)[nH]2)cc1 |
| 4.8 | Cc1cccc(C)c1-c1cccc(-c2cn(C)c(C)n2)c1 |
| 5.2 | Cc1cccc(C)c1-c1cccc(-c2nccn2C)c1 |
| 4.9 | CCCn1c(-c2cc(-c3c(C)cccc3C)ccc2OC)nc(C)c1C |
| 5.1 | Cc1ccccc1-c1cccc(-c2nc(C)c(C)[nH]2)c1 |
| 5.7 | Cc1cccc(C)c1-c1ccc(OCC(N)=O)c(-c2nc(C)c(C)[nH]2)c1 |
| 4.8 | COc1ncccc1-c1cc(-c2nc(C)c(C)[nH]2)cc(-c2c(C)cccc2C)c1 |
| 6.1 | COc1ccc(-c2c(C)cccc2C)cc1-c1nc(C)c(C)[nH]1 |
| 4.9 | COc1ccc(-c2nc(C)c(C)[nH]2)cc1-c1c(C)cccc1C |
| 5.4 | COc1c(-c2c(C)cccc2C)cc2ccoc2c1-c1nc(C)c(C)[nH]1 |
| 5.9 | COC(=O)COc1ccc(-c2c(C)cccc2C)cc1-c1nc(C)c(C)[nH]1 |
| 4 | Cc1nc(-c2cccc(C(=O)Nc3ccccc3)c2)[nH]c1C |
| 4.8 | Cc1cscc1-c1cccc(-c2nc(C)c(C)[nH]2)c1 |

From ChEMBL document CHEMBL1159103, “Discovery of biaryl inhibitors of H+/K+ ATPase” (Bioorg Med Chem Lett, 2010)
